Consider three compounds from patent US20020128264A1, “Methods for treatment of conditions affected by activity of multidrug transporters” (priority 2000, published 2002).

Like-named read-outs stand apart in the source and are kept apart here.

The conditions of data set [1]: Taylor et al., 2000, cited from earlier work.
Data set [2] can be described thus: Intracerebroventricular (icv) efflux from brain. It is filed as in vivo, mice. Particulars: icv administration. How it is done:
(§1) Male Swiss-Webster CFW mice were supplied by Charles River Laboratories (Hollister, Calif.) and all experiments were conducted according to the NIH Guide on Care and Use of Laboratory Animals. Mice were 2-3 months old at the time of use.
(§2) These experiments were conducted according to the method of Banks et al. (1997) with minor modifications. The skull was exposed and, with a guarded 25 g needle, a hole was made through the skull at 1 mm anterior posterior (AP) and 1 mm lateral left (LL), relative to Bregma, and 3.5 mm dorsal ventral (DV), with respect to the skull. A guarded 1 μL Hamilton syringe (25 g) was used to inject 1 μL of PBS containing ^14C-AIT-082 (˜4.5×10^4 dpm/μL), ^3H-sucrose (˜3×10^4 dpm/μL), or ^3H-quinidine (˜3×10^4 dpm/μL) icv into mice. After injection and upon withdrawing the needle, there was often back flux of fluid that was collected. At various times after injection the amount of radioactivity remaining in the brain was determined. The amount of radioactivity in the back flux and injection mixture was also determined. Radioactivity in brain was corrected for the back flux and the log of this corrected dpm was plotted against time. The t½, was the inverse of the slope of the line multiplied by 0.301 (Banks et al., 1997).
(§3) All data are presented as mean ±S.E. For comparisons of means from 2 groups an unpaired Student's t-test was used. For comparisons of means from 3 groups, ANOVA was performed coupled with Scheffe's post-hoc analysis.

The conditions of data set [3]: Taylor et al., 2000, cited from earlier work. The source holds these as a separate data set.
For the next data set, the target named is T1, P-gp (Mus musculus, UniProt P21447).
T1 construct: from tissue; host or cells: brain of living mice (in vivo efflux after icv or ipc injection)
T1 sequence (P21447 whole entry): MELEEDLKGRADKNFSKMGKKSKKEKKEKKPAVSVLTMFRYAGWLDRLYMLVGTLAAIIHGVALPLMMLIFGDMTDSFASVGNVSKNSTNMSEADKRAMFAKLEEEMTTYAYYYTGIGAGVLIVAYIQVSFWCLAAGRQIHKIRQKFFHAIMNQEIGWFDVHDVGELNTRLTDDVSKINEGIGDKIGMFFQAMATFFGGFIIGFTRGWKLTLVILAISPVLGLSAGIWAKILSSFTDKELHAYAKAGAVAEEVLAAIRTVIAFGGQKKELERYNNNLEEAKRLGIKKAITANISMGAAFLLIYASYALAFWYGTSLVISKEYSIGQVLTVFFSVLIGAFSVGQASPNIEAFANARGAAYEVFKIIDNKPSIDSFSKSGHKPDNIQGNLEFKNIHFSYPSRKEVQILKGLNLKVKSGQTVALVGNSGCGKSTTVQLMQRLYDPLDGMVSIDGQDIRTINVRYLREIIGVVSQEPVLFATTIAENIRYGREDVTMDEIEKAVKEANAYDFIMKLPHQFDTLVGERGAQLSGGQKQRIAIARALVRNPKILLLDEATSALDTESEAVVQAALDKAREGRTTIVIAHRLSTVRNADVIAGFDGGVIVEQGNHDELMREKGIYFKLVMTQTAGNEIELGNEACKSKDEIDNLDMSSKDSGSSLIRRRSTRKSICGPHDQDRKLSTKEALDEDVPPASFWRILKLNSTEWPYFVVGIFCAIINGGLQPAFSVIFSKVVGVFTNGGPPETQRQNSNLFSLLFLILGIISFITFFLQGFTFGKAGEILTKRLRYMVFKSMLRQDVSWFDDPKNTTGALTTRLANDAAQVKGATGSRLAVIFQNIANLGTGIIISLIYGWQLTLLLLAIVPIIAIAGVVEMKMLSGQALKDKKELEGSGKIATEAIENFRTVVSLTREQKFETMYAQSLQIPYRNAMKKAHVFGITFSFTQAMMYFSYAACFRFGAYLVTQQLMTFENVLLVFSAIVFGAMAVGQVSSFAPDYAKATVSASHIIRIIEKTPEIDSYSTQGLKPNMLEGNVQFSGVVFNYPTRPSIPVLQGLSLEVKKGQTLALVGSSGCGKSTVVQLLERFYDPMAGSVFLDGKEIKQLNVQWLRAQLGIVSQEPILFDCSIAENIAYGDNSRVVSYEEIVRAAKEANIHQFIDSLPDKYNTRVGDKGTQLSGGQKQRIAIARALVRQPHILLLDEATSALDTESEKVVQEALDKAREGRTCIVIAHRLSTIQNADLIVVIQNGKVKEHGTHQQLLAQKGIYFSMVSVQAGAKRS
The data set is described as follows: Effect of AIT-082 on efflux of 3H-quinidine (P-gp substrate) from brain after icv administration. It is filed as in vivo, mice. Particulars: quinidine is a P-gp substrate. How it is done: as §2, §3

Data set [4] can be described thus: Intraparenchymal (ipc) efflux from brain. It is filed as in vivo, mice. Particulars: ipc administration. As to the method: as §1
These experiments were conducted according the method of Banks et al. (1994) with minor modifications. Mice were anesthetized and then immobilized in a stereotaxic apparatus with a mouse adaptor coupled to a microinjection unit (Kopf, Tujunga, Calif.). A small hole was made in the skull with a Dremel drill (model 770; 2.4 mm drill bit, model 107) at −1 mm AP and 1 mm LL relative to Bregma. Using a guarded 0.5 μL Hamilton syringe (25 g), 0.1 μL PBS containing ^14C-AIT-082 ([…]) or ^3H-sucrose (˜5×10^4 dpm/μL) was injected ipc at […] with respect to the skull. Back flux of injection fluid was collected and at various times after injection brains were removed. The amount of radioactivity in brain, back flux and injection mixture was measured. The amount of radioactivity in the brain was corrected for the back flux and the log of this corrected dpm was plotted against time. The t½ was calculated as described above.
as §3

Data set [5] deals with MRPs. The data set is described as follows: Effect of MRP inhibitors on efflux of 14C-AIT-082 from brain after ipc administration. Particulars: ipc co-administration with 14C-AIT-082. It is filed as in vivo, mice.
Experimental: Mice were anesthetized and then immobilized in a stereotaxic apparatus with a mouse adaptor coupled to a microinjection unit (Kopf, Tujunga, Calif.). […] Back flux of injection fluid was collected and at various times after injection brains were removed. The amount of radioactivity in brain, back flux and injection mixture was measured. The amount of radioactivity in the brain was corrected for the back flux and the log of this corrected dpm was plotted against time. The t½ was calculated as described above.
As above, all experiments included a control group in which ^14C-AIT-082 was administered in PBS.
Data set [6] relates to MRPs. Put plainly: Effect of MRP inhibitors on efflux of 14C-AIT-082 from brain after icv administration. It is filed as in vivo, mice. The conditions noted are these: icv co-administration with 14C-AIT-082.
Experimental: To examine the role of P-gp and MRP, various substrates/inhibitors were co-administered with ^14C-AIT-082. […] In all experiments the control group of animals was given ^14C-AIT-082 in PBS. Additionally, in experiments in which probenecid or verapamil were used, a second control group was given ^14C-AIT-082 in PBS containing 370 mM NaOH and 370 mM HCl, pH 7.4, or 14C-AIT-082 in PBS with 4.2% ethanol, pH 7.4, respectively.
All data are presented as mean ±S.E. For comparisons of means from 2 groups an unpaired Student's t-test was used. […]
Setting [7] is: passively transported compound, t½ significantly higher.

As for `O=C(CCn1cnc2c(=O)[nH]cnc21)Nc1ccc(C(=O)O)cc1` [AIT-082, N-4-carboxyphenyl-3-(6-oxohydropurin-9-yl)propanamide], the “mechanism of transport into brain” value in data set [1] is reported as “non-saturable mechanism”. In data set [1] (capillary depletion and microdialysis), the “amount detectable in cortical extracellular fluid” value is given as “low micromolar quantities”. Moreover, the “effect of excess unlabeled AIT-082 on efflux of 14C-AIT-082 from brain (saturability)” value in data set [2] and in data set [4] was “inhibited” in each case. In addition, the “t½ of transport out of brain” value in data set [2] (mice, mean ±S.E.) was 20 ± 1.0 min; in data set [3] (after intracerebroventricular administration) it was “approximately 20 minutes”; in data set [4] (mice, mean ±S.E.), 35.0 ± 1.9 min. For the same compound, the “effect of excess unlabeled AIT-082 on efflux of 14C-AIT-082 from brain” value in data set [3] is listed as “inhibited”. The “effect on efflux of 3H-quinidine from brain” value on P-gp is “inhibited”.
On to `OC[C@H]1O[C@@](CO)(O[C@H]2O[C@H](CO)[C@@H](O)[C@H](O)[C@H]2O)[C@@H](O)[C@@H]1O` [^3H-sucrose, sucrose, reference compound], for which the “transport out of brain compared with 14C-AIT-082” value in data set [2] (setting [7]) and in data set [4] (setting [7]) was “significantly slower” in each case.
In the case of `CCCN(CCC)S(=O)(=O)c1ccc(C(=O)O)cc1` [probenecid], the “effect on efflux of 14C-AIT-082 from brain” value in the data set with MRPs [5] and in the data set on MRPs [6] was “significantly inhibited” each time.
